Measurements: ChEMBL document CHEMBL3351803, “5Z-7-Oxozeaenol covalently binds to MAP2K7 at Cys218 in an unprecedented manner” (Bioorg Med Chem Lett, 2015)

How the values were obtained:
[1] = biological target: T1, Dual specificity mitogen-activated protein kinase kinase 7 (Homo sapiens, UniProt O14733); assay: Inhibition of MAP2K7 (unknown origin) using unphosphorylated GST-tagged JNK1 substrate protein assessed as phosphorylation by ELISA
T1 sequence (O14733 whole entry): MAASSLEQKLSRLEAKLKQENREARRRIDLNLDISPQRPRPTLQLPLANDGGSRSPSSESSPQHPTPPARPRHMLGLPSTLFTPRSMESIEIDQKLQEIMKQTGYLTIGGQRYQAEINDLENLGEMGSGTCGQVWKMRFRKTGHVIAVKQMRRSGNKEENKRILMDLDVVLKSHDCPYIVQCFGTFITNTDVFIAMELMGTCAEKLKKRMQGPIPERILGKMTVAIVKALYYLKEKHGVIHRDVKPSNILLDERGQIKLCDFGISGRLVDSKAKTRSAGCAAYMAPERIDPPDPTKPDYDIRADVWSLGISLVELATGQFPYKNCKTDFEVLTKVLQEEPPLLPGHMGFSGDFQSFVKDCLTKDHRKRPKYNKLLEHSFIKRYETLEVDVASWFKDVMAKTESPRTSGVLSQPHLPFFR

[2] = biological target: Dual specificity mitogen-activated protein kinase kinase 1 (Homo sapiens, UniProt Q02750); assay: Inhibition of MAP2K1 (unknown origin) using unphosphorylated GST-tagged ERK2 substrate protein assessed as phosphorylation by ELISA
[3] = biological target: Mitogen-activated protein kinase 1 (Homo sapiens, UniProt P28482); assay: Inhibition of ERK2 (unknown origin) using FITC-labeled substrate peptide assessed as phosphorylation
Sequence of Mitogen-activated protein kinase 1 (P28482 whole entry): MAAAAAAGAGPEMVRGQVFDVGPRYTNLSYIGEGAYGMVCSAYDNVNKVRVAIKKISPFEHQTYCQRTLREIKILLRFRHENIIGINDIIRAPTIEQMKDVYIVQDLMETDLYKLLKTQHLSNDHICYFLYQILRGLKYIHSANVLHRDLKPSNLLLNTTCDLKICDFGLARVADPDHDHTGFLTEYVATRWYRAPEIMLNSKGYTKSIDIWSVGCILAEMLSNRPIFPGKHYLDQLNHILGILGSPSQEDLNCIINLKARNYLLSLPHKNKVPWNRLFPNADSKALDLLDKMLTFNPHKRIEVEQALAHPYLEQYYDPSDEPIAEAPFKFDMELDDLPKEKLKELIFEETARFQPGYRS

Sequence of Dual specificity mitogen-activated protein kinase kinase 1 (Q02750 whole entry): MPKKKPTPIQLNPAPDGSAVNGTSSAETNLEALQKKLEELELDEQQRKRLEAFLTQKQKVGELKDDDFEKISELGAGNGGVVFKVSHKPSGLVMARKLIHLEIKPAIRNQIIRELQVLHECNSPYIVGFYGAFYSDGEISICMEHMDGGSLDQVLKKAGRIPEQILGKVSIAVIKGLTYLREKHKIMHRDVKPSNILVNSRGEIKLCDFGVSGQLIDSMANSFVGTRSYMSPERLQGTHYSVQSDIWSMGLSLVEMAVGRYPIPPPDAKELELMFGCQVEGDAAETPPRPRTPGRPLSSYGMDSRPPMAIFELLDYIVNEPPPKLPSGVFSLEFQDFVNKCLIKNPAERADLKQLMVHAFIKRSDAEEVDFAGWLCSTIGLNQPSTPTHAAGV

Compound `COc1cc(O)c2c(c1)/C=C/C[C@H](O)[C@H](O)C(=O)/C=C\C[C@H](C)OC2=O` has an IC50 [1] of 1300 nM, an IC50 [2] of 80 nM and an IC50 [3] of 6800 nM.
